The source of these data is the supplement of paper PMC10949913.

Assay in all cases: area under concentration-response curve (viability) (AUC (a.u.)); higher = less active
Holding throughout (details): 48 h

Assay [1] concerns CU-ACC2. Put shortly:
(§1)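 For each of three adrenocortical carcinoma cell lines, 500–1,000 cells/well were placed in 5 µL medium in 1,536-well plates. A 23 nL volume of every library compound was added at 11 concentrations. Following 48 h, a 15-minute room-temperature CellTiter-Glo step preceded luminescence reading, with signals normalised per plate to vehicle and empty-well controls. AC50 and area under the curve were derived by curve fitting, retaining only inhibitory or non-responding curve classes.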

In assay [2] the test system is NCI-H295R. Put shortly:
as §1

Assay [3] concerns CU-ACC1. The essentials: as §1

As for `Cn1cc(-c2c[nH]c3ncnc(N4CCOCC4)c23)cn1`, the results for the “area under concentration-response curve” value in assay [1], in assay [2] and in assay [3] were 610, 576 and 543, respectively.
For `COc1cc(C(=O)N[S+](=O)([O-])c2ccccc2C)ccc1Cc1cn(C)c2ccc(NC(=O)OC3CCCC3)cc12` the same measures were 595, 488 and 513.
For `O=C1CC[C@H](N2Cc3c(OCc4ccc(CN5CCOCC5)cc4)cccc3C2=O)C(=O)N1` the same measures were 606, 552 and 517.
For `C[S+](=O)([O-])Nc1ccc([N+](=O)[O-])cc1Oc1ccccc1` the same measures were 639, 583 and 544.
As for `N/C(=N\OCC(O)CN1CCCCC1)c1cccnc1` (stereo unspecified), the “area under concentration-response curve” value is 447 in assay [1], 455 in assay [2] and 415 in assay [3].
`Cc1[nH]c(/C=C2\C(=O)Nc3ccc(F)cc32)c(C)c1C(=O)NC[C@H](O)CN1CCOCC1`: the “area under concentration-response curve” value in assay [1] was 601; in assay [2] it was 539; in assay [3], 525.
On the same counts, the results for `COc1cc2c(cc1OC)CN(CCc1ccc(NC(=O)c3cccc4c(=O)c5cccc(OC)c5[nH]c34)cc1)CC2` are 621, 567 and 575.
On the same counts, the results for `C[S+](=O)([O-])c1ccc(-c2nnc(/C=C/c3nnc(-c4ccc(C#N)cc4)o3)n2-c2ccccc2Cl)nc1` are 603, 524 and 537.
On the same counts, the results for `COc1cc2nccc(Oc3ccc(NC(=O)Nc4ccc(F)cc4F)c(F)c3)c2cc1OC` are 623, 515 and 548.
Consider `C=C1[C@H](OC(=O)/C=C(\C)CC)C[C@@H](C(C)C)[C@@H]2[C@H]([C@@H](C)OC(C)=O)C(=O)C[C@@H]12`, for which the “area under concentration-response curve” value in assay [1] was 617; in assay [2] it was 557; in assay [3], 527.
Take `CCOC(=O)c1c(C)n(C)c2ccc(O)cc12`: the “area under concentration-response curve” value in assay [1] was found to be 593; in assay [2], 520; in assay [3], 536.
For `F\C1=C\N(C2CCCO2)C(=O)NC1=O` (stereo unspecified) the same measures were 612, 511 and 512.
For `CC(C)(CO)[C@@H](O)C(=O)NCCC(=O)O` the same measures were 487, 509 and 506.
On the same counts, the results for `O=C(N[C@H]1CN2CCC1CC2)c1ccc(Cl)cc1` are 616, 554 and 495.
On to `COC1=CC=C(Cl)C=C1\C2=C\C(=O)NC(=S)N2CC(N)=O`, for which the “area under concentration-response curve” value is 580 in assay [1], 556 in assay [2] and 448 in assay [3].
On the same counts, the results for `Cc1cc(O)cc2c1[C@]1(C)CC[C@H]3C(C)(C)CCC[C@]3(C)[C@H]1C2` are 190, 89.9 and 53.6.
On the same counts, the results for `Nc1nc(N)nc(-c2cc(Cl)ccc2Cl)n1` are 441, 410 and 409.
